Source: patent US20050119352A1, “Method of treating cancers” (priority 2002, published 2005)
Like-named read-outs stand apart in the source and are kept apart here.

Experiments:
[1] = test system: transplanted human mammary carcinoma; conditions: cited from earlier work
[2] = test system: ARH-77 cells, a human multiple myeloma cell line; assay: MTT cell survival assay in ARH-77 multiple myeloma cells
Description: β-lapachone was dissolved at 20 mM concentration in dimethyl sulfoxide (DMSO), aliquoted, and stored at −20° C. for cell culture use. Imatinib was dissolved at 100 mM concentration in dimethyl sulfoxide (DMSO).
Each well was treated with β-lapachone and/or imatinib. Each condition was run in triplicate. […] The plates were read using a plate reader at 570 nm.

[3] = test system: K562 cells (human chronic myelogenous leukemia cell line), imatinib-sensitive; assay: MTT cell survival assay in K562 CML cells, imatinib-sensitive line
Description: (§1) K562 cells (a human chronic myelogenous leukemia (CML) cell line), were suspended in RPMI 1640 Medium (Life Technologies Inc.), supplemented with 10% FCS, 2 mM L-glutamine in 96-well plates (2×10^4 cells per well). Both an imatinib-sensitive and an imatinib-resistant cell line were used. Each well was treated with β-lapachone and/or imatinib. Each condition was run in triplicate. After incubation for 48 hours, cell survival was assayed using MTT to determine cell survival. The plates were read using a plate reader at 570 nm.

[4] = test system: K562 cells (human chronic myelogenous leukemia cell line), imatinib-resistant; assay: MTT cell survival assay in K562 CML cells, imatinib-resistant line; assay type: cell-based; conditions: 48 hours; for % Viability: Imatinib 0 μM
Description: as §1

[5] = cited from earlier work

O=CN/C=C/c1cc(O)ccc1O [erbstatin]
tumor growth ([1]; another carcinoma which does not express the EGF receptor): without effect | tumor growth ([1]; carcinoma which expresses epidermal growth factor receptor tyrosine kinase, athymic nude mice): selectively attenuates the growth

Cc1ccc(NC(=O)c2ccc(CN3CCN(C)CC3)cc2)cc1Nc1nccc(-c2cccnc2)n1 [imatinib, Imatinib]
% Viability ([2]; STI571 1 μM, Co-501 0 μM, 24 hours): 66.3% | % Viability ([2]; STI571 2 μM, Co-501 0 μM, 24 hours): 80.0% | % Viability ([2]; STI571 5 μM, Co-501 0 μM, 24 hours): 85.7% | % Viability ([2]; STI571 10 μM, Co-501 0 μM, 24 hours): 91% | % Viability ([2]; STI571 20 μM, Co-501 0 μM, 24 hours): 47% | % Viability ([2]; STI571 20 μM, Co-501 0 μM, 24 hours, listed as STI571): 46.7% | % Viability ([2]; STI571 50 μM, Co-501 0 μM, 24 hours): 10.0% | viability at 0.5 µM ([3]; Homo sapiens, K562, 48 h): 57.2% | viability at 1 µM ([3]; Homo sapiens, K562, 48 h): 36.6% | viability at 5 µM ([3]; Homo sapiens, K562, 48 h): 20.9% | viability at 10 µM ([3]; Homo sapiens, K562, 48 h): 13.9% | viability at 20 µM ([3]; Homo sapiens, K562, 48 h): 0.9% | viability at 1 µM ([4]; Homo sapiens, K562, Imatinib 1 μM, B-lapachon 0 μM): 94.7% | viability at 5 µM ([4]; Homo sapiens, K562, Imatinib 5 μM, B-lapachon 0 μM): 57.3% | viability at 10 µM ([4]; Homo sapiens, K562, Imatinib 10 μM, B-lapachon 0 μM): 22.5% | viability at 20 µM ([4]; Homo sapiens, K562, Imatinib 20 μM, B-lapachon 0 μM): 11.5% | viability at 40 µM ([4]; Homo sapiens, K562, Imatinib 40 μM, B-lapachon 0 μM): 4.9% | sensitivity to imatinib alone, compared with imatinib-sensitive line ([4]; imatinib alone): less sensitivity

CC1(C)CCC2=C(O1)c1ccccc1C(=O)C2=O [β-lapachone, 3,4-dihydro-2,2-dimethyl-2H-naphtho[1,2-b]pyran-5,6-dione]
viability at 1 µM ([2]; Homo sapiens, ARH-77, 24 h, STI571 0 μM, Co-501 1 μM, 24 hours): 91% | viability at 2 µM ([2]; Homo sapiens, ARH-77, 24 h, STI571 0 μM, Co-501 2 μM, 24 hours): 34% | viability at 4 µM ([2]; Homo sapiens, ARH-77, 24 h, STI571 0 μM, Co-501 4 μM, 24 hours): 40% | % Viability ([2]; STI571 0 μM, Co-501 2 μM, 24 hours): 34.3% | % Viability ([2]; human, 24 h, 1 μM): 91.4% | % Viability ([3]; Imatinib 0 μM, B-lapachone 1 μM, 48 hours): 36.2% | % Viability ([3]; Imatinib 0 μM, B-lapachone 2 μM, 48 hours): 11.9% | % Viability ([3]; Imatinib 0 μM, B-lapachone 4 μM, 48 hours): 1.0% | % Viability ([3]; human, 48 h, 0.5 μM): 58.3% | % Viability ([4]; B-lapachon 0.5 μM): 80.5% | % Viability ([4]; B-lapachon 1 μM): 79% | % Viability ([4]; B-lapachon 2 μM): 45% | % Viability ([4]; B-lapachon 4 μM): 0.56% | water solubility [5]: water insolubility
